Test results from patent US12291494B2, “Methods of treating fibrosis” (Nogra Pharma Limited, priority 2012, dated 2025).
Entries after “also recorded” stand apart in the source; their conditions may differ.

Experiments:
[1] = tested on: C57bl6 mice; assay: DSS intestinal fibrosis study: inflammation level by histology (May-Grunwald-Giemsa); type: in vivo; conditions: colon, MGG staining; DSS vehicle 3.77±0.80, control 0.50±0.33
Experimental: Rings of the transverse part of the colon were sampled (post mortem) and fixed in 4% formaldehyde and embedded in paraffin for histological analysis. Sections (4 μm) were stained with May-Grunwald-Giemsa and a multiparametric histological scoring (0 to 18) was performed blindly by two investigators. This staining allowed the quantification of inflammation. Histological grades, reflecting the inflammation level, were assigned based on the intensity of cellular infiltrate in the mucosa, its extension in sub-mucosa layers and the presence of epithelial lesions (see Table 5).

[2] = tested on: α-SMA; assay: DSS intestinal fibrosis study: Western blot of colon, α-SMA; type: in vivo, mice; conditions: whole colon, OD normalized with GAPDH, expressed as percentage of control groups; DSS 125.4 ± 19.45
Experimental: (§1) For the Western blot analysis, 0.5 cm of frozen colonic samples were homogenized in RIPA Buffer containing 50 mM Tris HCl pH 7.6, 150 mM NaCl, 1.5 mM MgCl2, 5 mM EDTA, 1% Triton-X and 10% Glycerol, supplemented with 100 mM Sodium Fluoride (NaF), 2 mM Sodium Orthovanadate (Na3VO4), 10 mM Sodium Pyrophosphate (NaPPi), 1 mM phenylmethanesulphone (PMSF) and a classical protease-inhibitor cocktail containing 10 μg/mL Leupeptin and Aprotinin.
(§2) For each sample, 30 μg of protein was separated by PAGE and electroblotted. Nitrocellulose membranes (100% pure) were incubated (according with a specific protocol for each antibody) with primary antibodies directed against CTGF, Collagen-I and GAPDH (purchased from Abcam, Cambridge, UK; 1:1000 for 2 h at RT), diluted in 5% non-fat milk in 0.1% TBS-t. […] Optical density of target bands was determined using a computer-assisted densitometer and the ImageJ public domain software (W. S., Rasband, ImageJ, U. S. National Institutes of Health, Bethesda, MD; http://rsb.info.nih.gov/ij/, 1997-2011). Tissue levels were expressed as units of Optical Density (OD) per quantity of total proteins, normalized with internal control GAPDH and the results were expressed as percentage of control groups.

[3] = tested on: CTGF; assay: DSS intestinal fibrosis study: Western blot of colon, CTGF; type: in vivo, mice; conditions: whole colon, OD normalized with GAPDH, expressed as percentage of control groups; DSS 115.1 ± 16.88; listed as GED
Experimental: as §1, §2

[4] = tested on: main markers of fibrosis (Collagen I-III, α-SMA, TGF-β1, Smad3, CTGF); assay: DSS chronic colitis (Ex. 7): immunohistochemistry of colon; type: in vivo, mice; conditions: DSS+GED vs DSS, listed as GED
Experimental: Tissue specimens from the colon, dissected and fixed in fresh 4% formaldehyde (FA)/PBS solution for 3 hours at room temperature, were dehydrated in a graded ethanol series, and embedded in low-temperature-fusion paraffin. 3-μm-thick sections were incubated in a solution of methanol and 3% hydrogen peroxide for 45 min.
Samples were incubated overnight with specific antibodies against α-smooth muscle actin (α-SMA, Abcam), collagen types I-III (Abcam), TGF-β1 (Abcam), connective tissue growth factor (CTGF) (Abcam), pSmad3 and Smad3 (Cell Signaling), Smad7 (Imgenex) PPARγ (Cell Signaling). The samples were washed 5 min with PBS and incubated with streptavidin-biotin-peroxidase conjugated secondary antibody (Dako LSAB Corporation, cod K0675, Dako-Cytomation, Milano). After one wash in PBS for 10 min the sections are subject to incubation with 3,3-diaminobenzidine-tetrahydrochloride for 1-3 min. The counterstaining of nuclei was obtained by Hematoxilin Eosin. The specificity of immune reaction was effected keeping off the primary antibodies. Finally the samples were stained with hematoxylin of Mayer and observed under the Olympus BX51 Light Microscope (Olympus, Optical Co. Ltd., Tokyo, Japan).

[5] = tested on: IL-13; assay: DSS chronic colitis (Ex. 7): Western blot, IL-13; type: in vivo, mice; conditions: percentage of optical density vs control group, normalized with GAPDH; DSS 189.5%±28.71%
Experimental: 0.5 cm of frozen colonic samples were cut and mechanically homogenized in RIPA Buffer containing 50 mMTrisHCl pH 7.6, 150 mMNaCl, 1.5 mM MgCl2, 5 mM EDTA, 1% Triton-X and 10% Glycerol, supplemented with 100 mM Sodium Fluoride (NaF), 2 mM Sodium Orthovanadate (Na3VO4), 10 mM Sodium Pyrophosphate (NaPPi), 1 mMphenylmethanesulphone (PMSF) and a classical protease-inhibitor cocktail containing 10 μg/mL Leupeptin and Aprotinin.
30 μg of protein for each sample were separated by PAGE and electroblotted. 100% pure Nitrocellulose membranes were incubated (according with a specific protocol for each antibody) with primary antibodies directed against TGF-β1, CTGF, α-SMA, Collagen-I and GAPDH (purchased from Abcam, Cambridge, UK; 1:1000 for 2 h at RT), and IL-13 (purchased from Antibodies online; 1:1000 for 2 h at RT) diluted in 5% non fat-milk in 0.1% TBS-t. […] Optical density of target bands was determined using a computer-assisted densitometer and the ImageJ public domain software (W. S., Rasband, ImageJ, U. S. National Institutes of Health, Bethesda, MD; http://rsb.info.nih.gov/ij/, 1997-2011). Tissue levels were expressed as units of Optical Density (OD) per quantity of total proteins, normalizing with internal control GAPDH and the results were expressed as percentage of control groups.

SMILES: COC(Cc1ccc(N)cc1)C(=O)O (racemic) [Compound 34, (±)-2-methoxy-3-(4′-aminophenyl) propionic acid]
- inflammation level, histological score (0 to 18) [1]: 2.18±0.48
- α-SMA (Western blot) [2]: 97.88 ± 15.66
- CTGF (Western blot) [3]: 55.75±17.53
- Collagen I-III and α-SMA (immunohistochemistry) ([4]; FIG. 13A, 13B): marked reduction; also recorded: significant reduction
- TGF-β1, Smad, CTGF (immunohistochemistry) ([4]; FIG. 15 / data not shown): marked reduction; also recorded: significant reduction
- IL-13 expression level (Western blot) [5]: 88.88%±14.01%
